According to patent publication US9730935B2, “Targeting a non-canonical notch signaling pathway for cancer treatment” (The Board of Trustees of the Leland Stanford Junior …, priority 2013, dated 2017):

Key:
[1] = tested on: Drosophila larval brain NBs (N-induced NB expansion); test: Pharmacological treatment of N-GOF larvae: ectopic NB formation in larval brain; assay type: in vivo; details: Mdivi-1 5 μM in food, 0.5% DMSO vehicle control, larval brains at 120 hr ALH, PntP1>N-V5
Experimental: Pharmacological treatment of larvae. Mdivi-1 (Enzo Life Science) dissolved in 0.5% DMSO was mixed in instant Drosophila media at 5 μM final concentration. 0.5% DMSO alone was used as vehicle control. Embryos were collected on Mdivi-1 containing food or control food for 6 hrs at 25° C. and allowed to develop further to 120 hr ALH before larval brain dissection and immunostaining.
Immunohistochemistry. For larval brain immunostaining, larvae were dissected in Schneider's medium (Invitrogen) and fixed with 4% formaldehyde in PEM buffer (100 mM PIPES at pH 6.9, 1 mM EGTA, 1 mM MgCl2) for 23 min at room temperature. Immunohistochemistry of TH and mito-GFP in Drosophila brain was performed as described (Wu et al., 2013). […] For thoracic muscle mitochondrial morphology analysis, mito-GFP was expressed in thoracic muscle using the Mhc-Gal4 driver and indirect flight muscles were dissected in PBS and examined under fluorescence confocal microscope. […]

HEK 293T cells = test: Western blot of mitochondrial fraction after CCCP treatment; assay type: cell-based, human
Experimental: (§1) Co-Immunoprecipitation and Western blot analysis. Approximately 25 adult fly thoraces were collected and homogenized in HBS buffer (210 mM Mannitol, 70 mM Sucrose, 5 mM HEPES pH 7.4, 1 mM EGTA) containing protease inhibitor (Sigma). The lysate was centrifuged at 1,300 g for 10 min, and the supernatant was collected and centrifuged again at 13,000 g for 15 min. For co-IP, the cytosolic and the mitochondrial fractions were incubated with anti-GFP conjugated protein G-agarose beads (Upstate) at 4° C. for 2 hours. Beads were washed 3× with PBS for 5 min each. Proteins were eluted and analyzed by WB as described (Wu et al., 2013). For co-IP assays using human NSC and GBM cells, soluble extracts of isolated mitochondrial fractions were incubated with a mixture of anti-human PINK1 (Abcam) and protein G-agarose beads (Upstate). The primary antibodies used were: pS505-dAKT and AKT (Cell Signaling Technology), Actin (Millipore), NICD (DSHB), NDUFS3 (MitoScience), complex IV subunit I (MitoScience), Drp-1 (L. Pallanck), Calnexin (Novus), PDE1 (MitoScience), Tom20 (Santa Cruz), KDEL (Enzo Life Science), Rab5 (Abcam), Rab7 (Abcam), rat anti-hNotch1 (1:200; DSBH). Rabbit anti-dPINK1 was generated as described (Yang et al., 2006).
(§2) Mitochondria purification. Intact mitochondria from fly heads, fly thoraces and cultured cells were purified at described previously (Wu et al., 2013). […]

Drosophila muscle tissue = test: as above
Experimental: as §1, §2

| SMILES | N-induced NB expansion / ectopic NB formation and brain tumor formation [1] | amount of mitochondrial N (HEK 293T cells) | mitochondrial PINK1 level (HEK 293T cells) | amount of mitochondrial N (Drosophila muscle tissue) | mitochondrial PINK1 level (Drosophila muscle tissue) |
| --- | --- | --- | --- | --- | --- |
| COc1cc(-n2c(=S)[nH]c3ccccc3c2=O)c(Cl)cc1Cl [Mdivi-1] | attenuated | – | – | – | – |
| N#CC(C#N)=NNc1cccc(Cl)c1 [CCCP] | – | not affected | increased | not affected | increased |
